Solubility-improving effect and Dissolved amount data for 23 compounds are collected here from patent US9023398B2, “Method for improving the aqueous solubility of poorly-soluble substances” (Kabushiki Kaisha Sangi, priority 2009, dated 2015).

SMILES strings stand for the structures. Counter-ions that a name gives are not always drawn.

How the values of data set [1] were obtained:
The rotation number of the stirrer was 120 rpm, and all of the tests were conducted in a thermostat at 37±0.5° C. Two types of test solutions, namely, distilled water and 2nd fluid for disintegration test (pH 6.8) of the Japanese Pharmacopoeia were used. As such 2nd fluid for disintegration test of the Japanese Pharmacopoeia, a solution prepared by diluting the 10-fold concentration solution of Kanto Kagaku Co., Ltd. with distilled water was used.
A comparative test was carried out in the same manner as that described above with the exception that a poorly-soluble substance or the like was used in an amount equal to that of a substance with improved aqueous solubility, instead of the substance with improved aqueous solubility.
1 mL of the solution was sampled in an Eppendorf centrifuge tube, 1, 3, 10, 30, 60, 180 and 360 minutes after initiation of the test. The thus sampled solution was centrifuged at 12,000 rpm for 5 minutes. […] In the case of the comparative test, the poorly-soluble substance or the like, which had not been dissolved in the solution, was removed. An aliquot of this supernatant was immediately frozen. The frozen sample was freeze-dried, and it was then used as a sample in the measurement of the amount of the substance with improved aqueous solubility, which had been dissolved in the test solution. The dissolved poorly-soluble substance was measured mainly using a dual wavelength absorption photometer.
Moreover, a comparative test was carried out using silica fume instead of the calcium compound microparticles. Specifically, a coating treatment was carried out according to the same method as that described in the above section “6-1.

The nature of data set [2]: Dissolution test of poorly-soluble substances using 2nd fluid for disintegration test (pH 6.8) of the Japanese Pharmacopoeia. The data set is classed as physicochemical.
Experimental: From initiation of the test, the mixed solution was stirred with a stirrer having a length of 15 mm. The rotation number of the stirrer was 120 rpm, and all of the tests were conducted in a thermostat at 37±0.5° C. Two types of test solutions, namely, distilled water and 2nd fluid for disintegration test (pH 6.8) of the Japanese Pharmacopoeia were used. As such 2nd fluid for disintegration test of the Japanese Pharmacopoeia, a solution prepared by diluting the 10-fold concentration solution of Kanto Kagaku Co., Ltd. with distilled water was used.
A short description of data set [3]: Dissolution test of poorly-soluble substances using distilled water. The data set is classed as physicochemical.
Where [4] appears, read: 2nd fluid for disintegration test, elution time 1 min.
Where [5] appears, read: 2nd fluid for disintegration test, elution time 3 min.
Where [6] appears, read: 2nd fluid for disintegration test, elution time 10 min.
Setting [7] is: 2nd fluid for disintegration test, elution time 30 min.
Setting [8] is: 2nd fluid for disintegration test, elution time 60 min.
[9] abbreviates: 2nd fluid for disintegration test, elution time 180 min.
Setting [10] is: 2nd fluid for disintegration test, elution time 360 min.

On to `CN(C)/N=N/c1[nH]cnc1C(N)=O` [dacarbazine], for which, in data set [1], the solubility-improving effect result is listed as “a solubility-improving effect was obtained”.

In the case of `CN1CCC[C@@H]1CCO[C@](C)(c1ccccc1)c1ccc(Cl)cc1` [clemastine fumarate], in data set [1], the solubility-improving effect entry was “a solubility-improving effect was obtained”.

Turning to `C[C@]12CC[C@@H]3c4ccc(O)cc4CC[C@H]3[C@@H]1C[C@@H](O)[C@@H]2O` [estriol], the solubility-improving effect result in data set [1] was “a solubility-improving effect was obtained”.

`C=CC[C@@H]1/C=C(\C)C[C@H](C)C[C@H](OC)[C@H]2O[C@@](O)(C(=O)C(=O)N3CCCC[C@H]3C(=O)O[C@H](/C(C)=C/[C@@H]3CC[C@@H](O)[C@H](OC)C3)[C@H](C)[C@@H](O)CC1=O)[C@H](C)C[C@@H]2OC` [tacrolimus hydrate]: the solubility-improving effect entry in data set [1] is on record as “a solubility-improving effect was obtained”.

In the case of `CC(C)Cc1ccc(C(C)C(=O)O)cc1` (stereo not drawn) [ibuprofen], the solubility-improving effect entry in data set [1] was “a solubility-improving effect was obtained”.

Consider `C[C@@H]1[C@H](O)[C@@H](C)/C=C/C=C/CC/C=C/C=C/C=C/C=C/C(O[C@H]2O[C@H](C)[C@@H](O)[C@H](N)[C@@H]2O)CC2O[C@](O)(CC(O)C(O)CCC(O)CC(O)CC(O)CC(=O)O[C@H]1C)CC(O)C2C(=O)O` (stereo partly drawn) [nystatin], for which the solubility-improving effect entry in data set [1] is on record as “a solubility-improving effect was obtained”.

In the case of `N[C@@H](CSCC(=O)O)C(=O)O` [L-carbocysteine], the solubility-improving effect result in data set [1] is recorded as “a solubility-improving effect was obtained”.

With `Clc1ccc2c(c1)C(N1CCNCC1)=Nc1ccccc1O2` [amoxapine], in data set [1], the solubility-improving effect result is listed as “a solubility-improving effect was obtained”.

Consider `CC(=O)O[C@@]12CO[C@@H]1C[C@H](O)[C@@]1(C)C(=O)[C@H](O)C3=C(C)[C@@H](OC(=O)[C@H](O)[C@@H](NC(=O)OC(C)(C)C)c4ccccc4)C[C@@](O)([C@@H](OC(=O)c4ccccc4)[C@H]21)C3(C)C` [docetaxel hydrate], for which the solubility-improving effect entry in data set [1] was “a solubility-improving effect was obtained”.

Turning to `O=C(O)c1cc(/N=N/c2ccc(S(=O)(=O)Nc3ccccn3)cc2)ccc1O` [salazosulfapyridine], the solubility-improving effect entry in data set [1] is listed as “a solubility-improving effect was obtained”.

As to `CC/C=C\C/C=C\C/C=C\C/C=C\C/C=C\CCCC(=O)OCC` [ethyl icosapentate], in data set [1], the solubility-improving effect result is “a solubility-improving effect was obtained”.

On to `CO/N=C(\C(=O)N[C@@H]1C(=O)N2C(C(=O)O)=C(CSc3nnnn3C)CS[C@H]12)c1csc(N)n1` [cefmenoxime hydrochloride], for which the solubility-improving effect entry in data set [1] is listed as “a solubility-improving effect was obtained”.

For `C[C@H]1[C@H](NC(=O)/C(=N\OC(C)(C)C(=O)O)c2csc(N)n2)C(=O)N1S(=O)(=O)O` [aztreonam], the solubility-improving effect entry in data set [1] is “a solubility-improving effect was obtained”.

Regarding `CCCCC(=O)O[C@H]1CC[C@H]2[C@@H]3CCc4cc(O)ccc4[C@H]3CC[C@]12C` [estradiol valerate], the solubility-improving effect result in data set [1] is reported as “a solubility-improving effect was obtained”.

As for `Cn1c(=O)c2[nH]cnc2n(C)c1=O` [Comparative Example 15, Theophylline], the Dissolved amount was 8133.8 µg/mL in data set [2] (setting [4]); 8635.7 µg/mL in data set [2] (setting [5]); 8596.0 µg/mL in data set [2] (setting [6]); 8929.7 µg/mL in data set [2] (setting [7]); 9096.5 µg/mL in data set [2] (setting [8]); 8906.5 µg/mL in data set [2] (setting [9]). Besides, the Dissolved amount in data set [2] (setting [10]) turned out to be 8906.2 µg/mL; in data set [3] (water, elution time 1 min), 7082.2 µg/mL; in data set [3] (water, elution time 3 min), 7897.9 µg/mL; in data set [3] (water, elution time 10 min), 8554.7 µg/mL; in data set [3] (water, elution time 30 min) it was 8621.6 µg/mL; in data set [3] (water, elution time 60 min) it was 8652.4 µg/mL. Besides, the Dissolved amount in data set [3] (water, elution time 180 min) was found to be 8672.3 µg/mL; in data set [3] (water, elution time 360 min), 8691.5 µg/mL.

Take `CC1CNc2c(cccc2S(=O)(=O)N[C@@H](CCCNC(=N)N)C(=O)N2CC[C@@H](C)C[C@@H]2C(=O)O)C1` (stereo partly drawn) [argatroban]: in data set [1], the solubility-improving effect result is given as “a solubility-improving effect was obtained”.

Regarding `CC(=O)S[C@@H]1CC2=CC(=O)CC[C@]2(C)[C@H]2CC[C@@]3(C)[C@@H](CC[C@@]34CCC(=O)O4)[C@H]12` [compound 34, Spironolactone], the Dissolved amount in data set [2] (Spironolactone, 2nd fluid for disintegration test, elution time 3 min) was 71.0 µg/mL; in data set [2] (Spironolactone, 2nd fluid for disintegration test, elution time 10 min), 85.6 µg/mL; in data set [2] (Spironolactone, 2nd fluid for disintegration test, elution time 30 min), 89.3 µg/mL; in data set [2] (Spironolactone, 2nd fluid for disintegration test, elution time 120 min) it was 92.0 µg/mL; in data set [2] (Spironolactone, 2nd fluid for disintegration test, elution time 360 min) it was 93.7 µg/mL; in data set [3] (Spironolactone, water, elution time 3 min) it was 29.6 µg/mL. Besides, the Dissolved amount in data set [3] (Spironolactone, water, elution time 10 min) is 31.9 µg/mL; in data set [3] (Spironolactone, water, elution time 30 min), 33.7 µg/mL; in data set [3] (Spironolactone, water, elution time 120 min), 39.7 µg/mL; in data set [3] (Spironolactone, water, elution time 360 min), 35.2 µg/mL.

With `NC(=O)N1c2ccccc2C=Cc2ccccc21` [compound 22, Carbamazepine], the Dissolved amount was 346.6 µg/mL in data set [2] (setting [5]); 352.2 µg/mL in data set [2] (setting [6]); 413.9 µg/mL in data set [2] (setting [7]); 282.1 µg/mL in data set [2] (2nd fluid for disintegration test, elution time 120 min); 199.3 µg/mL in data set [2] (setting [10]); 291.2 µg/mL in data set [3] (water, elution time 3 min). For the same compound, the Dissolved amount was determined as 234.8 µg/mL in data set [3] (water, elution time 10 min); 214.3 µg/mL in data set [3] (water, elution time 30 min); 159.5 µg/mL in data set [3] (water, elution time 120 min); 153.0 µg/mL in data set [3] (water, elution time 360 min).

As to `CC(=O)O[C@H]1C(=O)[C@@]2(C)[C@H]([C@H](OC(=O)c3ccccc3)[C@]3(O)C[C@H](OC(=O)[C@H](O)[C@@H](NC(=O)c4ccccc4)c4ccccc4)C(C)=C1C3(C)C)[C@]1(OC(C)=O)CO[C@@H]1C[C@@H]2O` [paclitaxel], the solubility-improving effect entry in data set [1] is “a solubility-improving effect was obtained”.

`C[C@]12CC[C@@H]3c4ccc(OC(=O)c5ccccc5)cc4CC[C@H]3[C@@H]1CC[C@@H]2O` [estradiol benzoate]: the solubility-improving effect entry in data set [1] was “a solubility-improving effect was obtained”.

Consider `CC(C)(Sc1cc(C(C)(C)C)c(O)c(C(C)(C)C)c1)Sc1cc(C(C)(C)C)c(O)c(C(C)(C)C)c1` [Comparative Example 5-3, Probucol], for which the Dissolved amount was determined as 4.7 µg/mL in data set [2] (setting [4]); 14.9 µg/mL in data set [2] (setting [5]); 19.9 µg/mL in data set [2] (setting [6]); 21.2 µg/mL in data set [2] (setting [7]); 21.8 µg/mL in data set [2] (setting [8]); 26.8 µg/mL in data set [2] (setting [9]). In addition, the Dissolved amount in data set [2] (setting [10]) is 28.0 µg/mL; in data set [2] (after dissolution test for 360 minutes, Second disintegration test medium (pH 6.8), 37±0.5° C.), 28.0 µg/mL; in data set [3] (after dissolution test for 360 minutes, distilled water, 37±0.5° C.) it was 9.7 µg/mL; in data set [3] (water, elution time 1 min), 0.7 µg/mL; in data set [3] (water, elution time 3 min), 2.7 µg/mL; in data set [3] (water, elution time 10 min), 3.7 µg/mL. The Dissolved amount in data set [3] (water, elution time 30 min) was 6.1 µg/mL; in data set [3] (water, elution time 60 min), 7.6 µg/mL; in data set [3] (water, elution time 180 min), 8.3 µg/mL; in data set [3] (water, elution time 360 min) it was 9.7 µg/mL.

As for `CC(C)(O/N=C(\C(=O)N[C@@H]1C(=O)N2C(C(=O)[O-])=C(C[n+]3ccccc3)CS[C@H]12)c1csc(N)n1)C(=O)O` [ceftazidime], in data set [1], the solubility-improving effect result was “a solubility-improving effect was obtained”.

For `CCCCCC(=O)O[C@]1(C(C)=O)CC[C@H]2[C@@H]3CCC4=CC(=O)CC[C@]4(C)[C@H]3CC[C@@]21C` [hydroxyprogesterone caproate], in data set [1], the solubility-improving effect entry is on record as “a solubility-improving effect was obtained”.
